The structures appear in SMILES notation. Activity calls are given as the source filed them. No cut-off for these calls is given here.

Series [1] deals with Schistosoma mansoni. Kind of series: Antiparasitic activity against Schistosoma mansoni infected in Hamster assessed as severity score at 10 uM incubated for 24 hrs. The class given is functional, organism-based.
The subject of series [2] is Schistosoma mansoni. Kind of series: Antiparasitic activity against Schistosoma mansoni infected in Hamster assessed as severity score at 10 uM incubated for 48 hrs. The class given is functional, organism-based.
Series [3] concerns Schistosoma mansoni. In words: Antiparasitic activity against Schistosoma mansoni infected in Hamster assessed as severity score at 10 uM incubated for 1 hr. The class given is functional, organism-based.
Series [4] is described as follows: Cytotoxicity against human HepG2 cells assessed as reduction in cell viability 48 hrs by MTT assay. Type of series: cell-based. Conditions: read-out: TC50. (In general: Formazan colour is commonly taken as a measure of viable cells.)
In series [5] the test system is Schistosoma mansoni. In words: Antiparasitic activity against Schistosoma mansoni infected in Hamster assessed as severity score at 10 uM incubated for 5 hrs. The class given is functional, organism-based.

For the compound `CN1CCCN(c2ncc(-c3ccc4c(Nc5ccncn5)ccnc4c3)cn2)CC1`, the outcome in series [1], in series [2], in series [3] and in series [5] was inactive. In addition, the CC50 at 48 h in series [4] is more than 37 µM.
With `c1cnc(Nc2ccnc3cc(-c4cnc(N5CCCNCC5)nc4)ccc23)cn1`, the outcome in series [1], in series [2], in series [3] and in series [5] was inactive. In addition, in series [4], the CC50 at 48 h amounted to 25 µM.
With `Cc1ccc2[nH]c3c4ccc(-c5cnc(N6CCCN(C)CC6)nc5)cc4ncc3c2c1`, the outcome in series [1], in series [2] and in series [5] was Active. Also, the CC50 at 48 h in series [4] worked out at 4.7 µM.
On to `COc1ccc(NC(=O)c2ccc(-c3cccc(N4CCOCC4)c3)cc2O)cc1Cl`, for which, in series [2], the result was Active. The CC50 at 48 h in series [4] worked out at 35 µM. In addition, the outcome in series [5] was inactive.
`CN1CCCN(S(=O)(=O)c2ccc(-c3ccc4c(Nc5ccc(Cl)cn5)ccnc4c3)cc2)CC1`: the outcome in series [1], in series [2], in series [3] and in series [5] was inactive. In series [4], the CC50 at 48 h came out at 1.8 µM.
As to `COc1ccc(NC(=O)c2ccc(-c3ccc(S(=O)(=O)N4CCN(C)CC4)cc3)cc2O)cc1Cl`, the result in series [1], in series [3] and in series [5] was inactive. The CC50 at 48 h in series [4] is more than 29 µM.
Consider `COc1ccc(NC(=O)c2ccc(-c3cccc(N4CCOCC4)c3)cc2N)cc1Cl`, for which the result in series [1], in series [2], in series [3] and in series [5] was inactive. In series [4], the CC50 at 48 h was found to be 35 µM.
As for `COc1ccc(Nc2ccnc3cc(-c4ccc(S(=O)(=O)N5CCCN(C)CC5)cc4)ccc23)cc1Cl`, the result in series [1], in series [2], in series [3] and in series [5] was inactive. Also, the CC50 at 48 h in series [4] stood at 11 µM.
As for `COc1ccc(NC(=O)c2ccc(-c3cnc(N4CCN(C)CC4)nc3)cc2O)cc1Cl`, the result in series [1], in series [3] and in series [5] was inactive. Besides, the CC50 at 48 h in series [4] worked out at 27 µM.
For `COc1ccc(Nc2ccnc3cc(-c4cnc(N5CCCN(C)CC5)nc4)ccc23)cc1Cl`, the result in series [1] and in series [2] was Active. Besides, the result in series [3] and in series [5] was inactive. The CC50 at 48 h in series [4] is 6.8 µM.
With `CCCN1CCCN(c2ncc(-c3ccc4c(Nc5cnccn5)ccnc4c3)cn2)CC1`, the outcome in series [1], in series [2], in series [3] and in series [5] was inactive. Moreover, in series [4], the CC50 at 48 h was 17 µM.
For the compound `CN1CCCN(c2ncc(-c3ccc4c(c3)ncc3c5ccccc5[nH]c43)cn2)CC1`, the result in series [1], in series [3] and in series [5] was inactive. The outcome in series [2] was Active. Also, the CC50 at 48 h in series [4] came out at 7.4 µM.
In the case of `CN1C[C@H]2C[C@@H]1CN2c1ncc(-c2ccc3c(Nc4cnccn4)ccnc3c2)cn1`, the result in series [1], in series [2], in series [3] and in series [5] was inactive.
For the compound `O=C(O)CN1CCN(c2ncc(-c3ccc4c(Nc5cnccn5)ccnc4c3)cn2)CC1`, the outcome in series [1], in series [2], in series [3] and in series [5] was inactive. Moreover, the CC50 at 48 h in series [4] is more than 30 µM.

The values above are taken from ChEMBL document CHEMBL4342475, “Structure-Bioactivity Relationships of Lapatinib Derived Analogs against Schistosoma mansoni” (ACS Med Chem Lett, 2020).
